Measured values published in patent US9796671B2, “Aurora kinase inhibitors” (REGENTS OF THE UNIVERSITY OF MINNESOTA, priority 2012, dated 2017).

Key:
[1] = test system: A549 cells transfected with Aurora B shRNA; experiment: Anchorage-independent growth, Aurora B knockdown cells; assay type: cell-based; details: Homo sapiens
Description: Tumor cells are suspended in basal medium Eagle (BME) medium and added to 0.6% agar, with different concentrations of Compound 1 in a base layer and a top layer of 0.3% agar. The cultures are maintained at 37° C. in a 5% CO2 incubator for 1 to 2 weeks and then colonies are counted under a microscope using the Image-Pro Plus software (v.4) program (Media Cybernetics, Silver Spring, Md.).
The effect of knocking down Aurora B expression in A549 cancer cells on the cell's sensitivity to Compound 1 was evaluated. […] Compound 1 (0.5 μM) inhibited anchorage-independent growth of A549 cells transfected with mock shRNA by about 90%.

Aurora B = Aurora B (Homo sapiens, UniProt Q96GD4); experiment: Aurora B in vitro kinase assay (histone H3 Ser10 phosphorylation, Western blot); assay type: biochemical
Aurora B, sequence (Q96GD4 whole entry): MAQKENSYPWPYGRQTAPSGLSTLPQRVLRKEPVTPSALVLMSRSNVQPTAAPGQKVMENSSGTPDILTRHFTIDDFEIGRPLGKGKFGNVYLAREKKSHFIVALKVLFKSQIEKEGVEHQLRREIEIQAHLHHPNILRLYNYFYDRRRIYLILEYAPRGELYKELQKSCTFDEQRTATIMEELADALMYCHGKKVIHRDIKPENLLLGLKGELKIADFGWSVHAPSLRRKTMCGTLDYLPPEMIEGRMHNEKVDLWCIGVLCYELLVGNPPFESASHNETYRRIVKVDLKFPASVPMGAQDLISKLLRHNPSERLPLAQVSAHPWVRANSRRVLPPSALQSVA
Description: Proteins are resolved by SDS-PAGE and transferred onto polyvinylidene difluoride membranes (Millipore, Mass.), which are blocked with nonfat milk and hybridized with specific primary antibodies. The protein bands are visualized using an enhanced chemiluminescence reagent (GE Healthcare, Pittsburgh, Pa.) after hybridization with a horseradish peroxidase-conjugated secondary antibody.
Reactions are carried out in 1× kinase buffer (25 mM Tris-HCl pH 7.5, 5 mM beta-glycerophosphate, 2 mM dithiothreitol (DTT), 0.1 mM Na3VO4, 10 mM MgCl2 and 5 mM MnCl2) containing 100 μM ATP at 30° C. for 30 minutes. Reactions are stopped and proteins detected by Western blotting.
An in vitro kinase assay was used to determine whether Compound 1 could inhibit Aurora B kinase activity using recombinant Aurora B protein and various concentrations of Compound 1. […] The effect of Compound 1 on Aurora A kinase activity using an in vitro kinase assay was also examined.

IKK beta = target: T1, IKK beta (Homo sapiens, UniProt O14920); experiment: Kinase profile assay (Millipore); assay type: biochemical; details: read-out: kinase activity compared with the control
T1 construct: purchased Millipore
Description: (§1) A kinase profile assay was performed by Millipore, to examine other potential targets of Compound 1. Only Akt2 activity was suppressed more than 50% after 5 μM compound 1 treatment, compared with the control (Table 2). In addition, the kinase activity of Aurora A was decreased less than 25% at 5 μM Compound 1.

CDK2/cyclinA = target: T2, CDK2/cyclinA (Homo sapiens, UniProt P24941); experiment: Kinase profile assay (Millipore); assay type: biochemical; details: 5 μM
T2 construct: purchased Millipore
Description: as §1

MSK1 = target: T3, MSK1 (Homo sapiens, UniProt O75582); experiment: Kinase profile assay (Millipore); assay type: biochemical; details: read-out: kinase activity compared with the control
T3 construct: purchased Millipore
Description: as §1

MEK1 = target: T4, MEK1 (Homo sapiens, UniProt Q02750); experiment: Kinase profile assay (Millipore); assay type: biochemical; details: read-out: kinase activity compared with the control
T4 construct: purchased Millipore
Description: as §1

Met = target: T5, Met (Homo sapiens, UniProt P08581); experiment: Kinase profile assay (Millipore); assay type: biochemical; details: 5 μM
T5 construct: purchased Millipore
T5 sequence (P08581 25-1390): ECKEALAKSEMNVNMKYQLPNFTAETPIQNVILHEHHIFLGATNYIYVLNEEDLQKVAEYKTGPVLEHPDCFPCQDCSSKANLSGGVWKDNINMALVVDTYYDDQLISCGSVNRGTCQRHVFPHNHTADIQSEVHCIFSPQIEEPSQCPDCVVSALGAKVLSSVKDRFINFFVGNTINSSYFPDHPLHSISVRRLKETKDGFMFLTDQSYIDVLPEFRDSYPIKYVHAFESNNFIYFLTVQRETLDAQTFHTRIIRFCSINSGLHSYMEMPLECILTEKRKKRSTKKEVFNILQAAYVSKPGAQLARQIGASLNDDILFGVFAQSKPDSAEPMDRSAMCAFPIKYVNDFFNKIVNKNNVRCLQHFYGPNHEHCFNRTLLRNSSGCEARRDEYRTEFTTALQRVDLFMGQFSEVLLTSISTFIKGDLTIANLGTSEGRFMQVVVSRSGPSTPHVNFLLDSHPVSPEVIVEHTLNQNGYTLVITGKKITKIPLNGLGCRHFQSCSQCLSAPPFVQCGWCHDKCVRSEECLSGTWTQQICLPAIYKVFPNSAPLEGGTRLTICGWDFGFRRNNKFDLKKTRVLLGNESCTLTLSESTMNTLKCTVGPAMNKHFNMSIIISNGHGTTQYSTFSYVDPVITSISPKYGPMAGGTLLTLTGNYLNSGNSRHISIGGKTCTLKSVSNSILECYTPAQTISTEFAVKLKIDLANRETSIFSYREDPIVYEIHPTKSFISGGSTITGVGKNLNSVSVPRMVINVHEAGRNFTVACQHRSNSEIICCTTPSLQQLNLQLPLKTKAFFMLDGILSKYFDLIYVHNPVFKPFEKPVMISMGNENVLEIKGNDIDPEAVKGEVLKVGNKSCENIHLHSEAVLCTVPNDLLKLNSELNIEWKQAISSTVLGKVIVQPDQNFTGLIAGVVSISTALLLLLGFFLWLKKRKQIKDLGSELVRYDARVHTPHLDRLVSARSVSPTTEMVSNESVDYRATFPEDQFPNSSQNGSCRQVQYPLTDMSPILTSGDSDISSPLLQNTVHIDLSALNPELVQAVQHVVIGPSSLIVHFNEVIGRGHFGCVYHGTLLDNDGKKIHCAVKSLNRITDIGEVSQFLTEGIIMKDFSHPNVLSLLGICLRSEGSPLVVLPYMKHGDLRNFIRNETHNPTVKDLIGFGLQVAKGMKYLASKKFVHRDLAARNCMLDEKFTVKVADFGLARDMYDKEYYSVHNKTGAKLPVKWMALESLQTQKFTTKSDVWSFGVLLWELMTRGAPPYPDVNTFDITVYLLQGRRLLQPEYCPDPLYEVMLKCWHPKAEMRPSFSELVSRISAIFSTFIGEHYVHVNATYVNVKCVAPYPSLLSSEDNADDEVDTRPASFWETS
Description: as §1

MSK2 = target: T6, MSK2 (Homo sapiens, UniProt O75676); experiment: Kinase profile assay (Millipore); assay type: biochemical; details: read-out: kinase activity compared with the control
T6 construct: purchased Millipore
Description: as §1

EGFR = target: T7, EGFR (Homo sapiens, UniProt P00533); experiment: Kinase profile assay (Millipore); assay type: biochemical; details: 5 μM
T7 construct: purchased Millipore
T7 sequence (P00533 25-1210, species assumed): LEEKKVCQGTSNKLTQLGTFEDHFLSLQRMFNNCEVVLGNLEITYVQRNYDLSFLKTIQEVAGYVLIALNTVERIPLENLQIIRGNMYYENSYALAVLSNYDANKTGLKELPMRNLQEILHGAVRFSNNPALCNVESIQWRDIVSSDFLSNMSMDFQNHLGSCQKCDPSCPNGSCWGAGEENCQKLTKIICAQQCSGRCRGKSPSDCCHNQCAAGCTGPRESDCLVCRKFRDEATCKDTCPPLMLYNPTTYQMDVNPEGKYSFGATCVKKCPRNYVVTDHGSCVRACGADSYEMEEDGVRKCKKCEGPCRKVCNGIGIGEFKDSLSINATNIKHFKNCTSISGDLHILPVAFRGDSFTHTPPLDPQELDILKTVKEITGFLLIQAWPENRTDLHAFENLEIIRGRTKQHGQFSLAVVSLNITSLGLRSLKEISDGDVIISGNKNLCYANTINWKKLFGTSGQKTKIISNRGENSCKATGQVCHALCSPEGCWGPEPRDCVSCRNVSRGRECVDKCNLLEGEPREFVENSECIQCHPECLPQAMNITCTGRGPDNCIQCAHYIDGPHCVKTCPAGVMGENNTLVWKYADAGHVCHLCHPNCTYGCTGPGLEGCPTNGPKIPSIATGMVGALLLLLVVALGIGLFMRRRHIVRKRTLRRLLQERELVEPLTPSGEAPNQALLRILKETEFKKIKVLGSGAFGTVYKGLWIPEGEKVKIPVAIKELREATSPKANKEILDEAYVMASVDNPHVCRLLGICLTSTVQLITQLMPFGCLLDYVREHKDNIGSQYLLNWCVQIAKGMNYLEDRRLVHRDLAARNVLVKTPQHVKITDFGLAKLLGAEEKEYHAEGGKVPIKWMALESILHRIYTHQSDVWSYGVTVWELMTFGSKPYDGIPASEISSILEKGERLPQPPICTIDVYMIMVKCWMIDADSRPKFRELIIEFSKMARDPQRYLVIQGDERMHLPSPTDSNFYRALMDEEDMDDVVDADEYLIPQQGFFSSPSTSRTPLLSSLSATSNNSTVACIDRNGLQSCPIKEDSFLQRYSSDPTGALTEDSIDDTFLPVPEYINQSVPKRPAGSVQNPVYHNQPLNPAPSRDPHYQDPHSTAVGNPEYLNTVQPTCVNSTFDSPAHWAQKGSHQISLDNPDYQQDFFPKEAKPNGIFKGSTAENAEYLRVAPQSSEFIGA
Description: as §1

Flt3 = target: T8, Flt3 (Homo sapiens, UniProt P36888); experiment: Kinase profile assay (Millipore); assay type: biochemical; details: read-out: kinase activity compared with the control
T8 construct: purchased Millipore
Description: as §1

CDK1/cyclinB = target: T9, CDK1/cyclinB (Homo sapiens, UniProt P06493); experiment: Kinase profile assay (Millipore); assay type: biochemical; details: read-out: kinase activity compared with the control
T9 construct: purchased Millipore
Description: as §1

PI3-K alpha = PI3-K alpha (Homo sapiens, UniProt P42336); experiment: Kinase profile assay (Millipore); assay type: biochemical; details: read-out: kinase activity compared with the control
Description: as §1

p70S6K = target: T10, p70S6K (Homo sapiens, UniProt P23443); experiment: Kinase profile assay (Millipore); assay type: biochemical; details: read-out: kinase activity compared with the control
T10 construct: purchased Millipore
Description: as §1

MKK7 beta = target: T11, MKK7 beta (Homo sapiens, UniProt O14733); experiment: Kinase profile assay (Millipore); assay type: biochemical; details: 5 μM
T11 construct: purchased Millipore
Description: as §1

mTOR/FKBP12 = target: T12, mTOR/FKBP12 (Homo sapiens, UniProt P42345); experiment: Kinase profile assay (Millipore); assay type: biochemical; details: read-out: kinase activity compared with the control
T12 construct: purchased Millipore
Description: as §1

GSK3 beta = target: T13, GSK3 beta (Homo sapiens, UniProt P49841); experiment: Kinase profile assay (Millipore); assay type: biochemical; details: read-out: kinase activity compared with the control
T13 construct: purchased Millipore
T13 sequence (P49841 whole entry, species assumed): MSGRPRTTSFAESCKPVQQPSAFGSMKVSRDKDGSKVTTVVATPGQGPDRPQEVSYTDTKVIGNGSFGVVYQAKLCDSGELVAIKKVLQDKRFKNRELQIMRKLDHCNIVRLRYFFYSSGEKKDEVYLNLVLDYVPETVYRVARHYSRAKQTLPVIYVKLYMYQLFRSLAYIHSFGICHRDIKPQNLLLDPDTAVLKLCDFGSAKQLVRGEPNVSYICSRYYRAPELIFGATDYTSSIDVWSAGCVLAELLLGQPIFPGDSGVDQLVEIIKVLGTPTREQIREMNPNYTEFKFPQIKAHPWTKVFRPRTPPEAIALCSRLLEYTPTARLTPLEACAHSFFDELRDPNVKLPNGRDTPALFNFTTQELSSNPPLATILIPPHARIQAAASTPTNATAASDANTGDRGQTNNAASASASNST
Description: as §1

PI3-K delta = PI3-K delta (Homo sapiens, UniProt O00329); experiment: Kinase profile assay (Millipore); assay type: biochemical; details: read-out: kinase activity compared with the control
Description: as §1

PKB beta (Akt2) = target: T14, PKB beta (Akt2) (Homo sapiens, UniProt P31751); experiment: Kinase profile assay (Millipore); assay type: biochemical
T14 construct: purchased Millipore
T14 sequence (P31751 whole entry, species assumed): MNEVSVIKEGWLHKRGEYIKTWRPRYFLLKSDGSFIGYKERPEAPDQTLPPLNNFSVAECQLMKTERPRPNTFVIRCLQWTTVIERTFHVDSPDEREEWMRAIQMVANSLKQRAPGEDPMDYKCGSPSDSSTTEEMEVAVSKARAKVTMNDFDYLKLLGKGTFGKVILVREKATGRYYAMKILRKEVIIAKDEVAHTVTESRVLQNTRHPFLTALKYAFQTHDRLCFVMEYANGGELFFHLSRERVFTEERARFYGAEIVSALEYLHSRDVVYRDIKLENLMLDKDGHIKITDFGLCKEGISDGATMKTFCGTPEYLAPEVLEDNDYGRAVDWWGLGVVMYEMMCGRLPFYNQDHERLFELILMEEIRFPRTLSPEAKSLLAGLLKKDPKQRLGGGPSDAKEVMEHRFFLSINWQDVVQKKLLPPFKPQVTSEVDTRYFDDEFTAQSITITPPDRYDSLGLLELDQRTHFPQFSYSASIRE
Description: as §1

IGF-1R = target: T15, IGF-1R (Homo sapiens, UniProt P08069); experiment: Kinase profile assay (Millipore); assay type: biochemical; details: read-out: kinase activity compared with the control
T15 construct: purchased Millipore
Description: as §1

GSK3 alpha = target: T16, GSK3 alpha (Homo sapiens, UniProt P49840); experiment: Kinase profile assay (Millipore); assay type: biochemical; details: read-out: kinase activity compared with the control
T16 construct: purchased Millipore
Description: as §1

AMPK-alpha1 = target: T17, AMPK-alpha1 (Homo sapiens, UniProt Q13131); experiment: Kinase profile assay (Millipore); assay type: biochemical; details: read-out: kinase activity compared with the control
T17 construct: purchased Millipore
Description: as §1

MKK4 = target: T18, MKK4 (Mus musculus, UniProt P47809); experiment: Kinase profile assay (Millipore); assay type: biochemical; details: read-out: kinase activity compared with the control
T18 construct: purchased Millipore
Description: as §1

AMPK-alpha2 = target: T19, AMPK-alpha2 (Homo sapiens, UniProt P54646); experiment: Kinase profile assay (Millipore); assay type: biochemical; details: read-out: kinase activity compared with the control
T19 construct: purchased Millipore
Description: as §1

c-Kit = target: T20, c-Kit (Homo sapiens, UniProt P10721); experiment: Kinase profile assay (Millipore); assay type: biochemical; details: read-out: kinase activity compared with the control
T20 construct: purchased Millipore
Description: as §1

PKB alpha (Akt1) = target: T21, PKB alpha (Akt1) (Homo sapiens, UniProt P31749); experiment: Kinase profile assay (Millipore); assay type: biochemical; details: read-out: kinase activity compared with the control
T21 construct: purchased Millipore
T21 sequence (P31749 whole entry, species assumed): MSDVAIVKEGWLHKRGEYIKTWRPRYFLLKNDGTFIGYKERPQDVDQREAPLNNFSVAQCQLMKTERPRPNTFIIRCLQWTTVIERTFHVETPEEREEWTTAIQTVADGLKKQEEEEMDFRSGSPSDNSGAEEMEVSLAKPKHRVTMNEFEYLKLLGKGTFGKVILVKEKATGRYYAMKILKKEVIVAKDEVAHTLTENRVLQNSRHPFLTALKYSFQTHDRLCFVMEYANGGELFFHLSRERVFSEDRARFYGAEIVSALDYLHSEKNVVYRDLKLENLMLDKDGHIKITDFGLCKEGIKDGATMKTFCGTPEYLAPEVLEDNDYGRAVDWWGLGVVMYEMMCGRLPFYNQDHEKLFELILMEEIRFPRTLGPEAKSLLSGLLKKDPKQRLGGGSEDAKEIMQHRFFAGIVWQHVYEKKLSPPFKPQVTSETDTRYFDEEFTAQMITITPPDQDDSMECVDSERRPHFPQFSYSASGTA
Description: as §1

mTOR = target: T22, mTOR (Homo sapiens, UniProt P42345); experiment: Kinase profile assay (Millipore); assay type: biochemical; details: read-out: kinase activity compared with the control
T22 construct: purchased Millipore
Description: as §1

PI3-K beta = PI3-K beta (Homo sapiens, UniProt P42338); experiment: Kinase profile assay (Millipore); assay type: biochemical; details: read-out: kinase activity compared with the control
Description: as §1

RSK2 = target: T23, RSK2 (Homo sapiens, UniProt P51812); experiment: Kinase profile assay (Millipore); assay type: biochemical; details: read-out: kinase activity compared with the control
T23 construct: purchased Millipore
T23 sequence (P51812 whole entry, species assumed): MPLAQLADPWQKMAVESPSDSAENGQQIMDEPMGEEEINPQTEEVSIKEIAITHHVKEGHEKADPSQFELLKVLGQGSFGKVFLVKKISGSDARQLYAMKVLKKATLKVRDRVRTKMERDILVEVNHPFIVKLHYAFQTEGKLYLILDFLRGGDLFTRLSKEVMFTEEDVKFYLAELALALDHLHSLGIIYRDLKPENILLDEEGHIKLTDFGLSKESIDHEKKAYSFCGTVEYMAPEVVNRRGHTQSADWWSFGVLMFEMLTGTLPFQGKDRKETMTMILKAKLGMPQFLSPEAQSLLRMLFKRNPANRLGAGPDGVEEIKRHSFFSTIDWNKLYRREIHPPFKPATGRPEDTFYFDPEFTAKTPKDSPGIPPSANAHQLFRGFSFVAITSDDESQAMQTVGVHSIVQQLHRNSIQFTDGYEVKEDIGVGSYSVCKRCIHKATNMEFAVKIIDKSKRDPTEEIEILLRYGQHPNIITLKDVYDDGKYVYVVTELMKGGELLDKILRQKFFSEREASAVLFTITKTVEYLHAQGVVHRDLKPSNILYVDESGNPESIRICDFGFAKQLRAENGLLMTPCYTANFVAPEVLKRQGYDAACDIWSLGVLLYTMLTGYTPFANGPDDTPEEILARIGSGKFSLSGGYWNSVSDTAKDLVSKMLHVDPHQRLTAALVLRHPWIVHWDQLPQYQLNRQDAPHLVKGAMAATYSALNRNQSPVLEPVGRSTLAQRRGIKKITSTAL
Description: as §1

c-RAF = target: T24, c-RAF (Homo sapiens, UniProt P04049); experiment: Kinase profile assay (Millipore); assay type: biochemical; details: read-out: kinase activity compared with the control
T24 construct: purchased Millipore
Description: as §1

MKK6 = target: T25, MKK6 (Homo sapiens, UniProt P52564); experiment: Kinase profile assay (Millipore); assay type: biochemical; details: read-out: kinase activity compared with the control
T25 construct: purchased Millipore
Description: as §1

MAPK1 = target: T26, MAPK1 (Homo sapiens, UniProt P27361); experiment: Kinase profile assay (Millipore); assay type: biochemical; details: read-out: kinase activity compared with the control
T26 construct: purchased Millipore
Description: as §1

IKK alpha = target: T27, IKK alpha (Homo sapiens, UniProt O15111); experiment: Kinase profile assay (Millipore); assay type: biochemical; details: read-out: kinase activity compared with the control
T27 construct: purchased Millipore
Description: as §1

## O=C(/C=C/c1ccc2c(c1)OCO2)/C=C1/C(=O)Nc2ccccc21 [Compound 1]
[1]
  inhibition at 0.5 µM: < 40%
Aurora B; 0.05 μM
  inhibition at 0.05 µM: 22%
Aurora B; 0.1 μM
  inhibition at 0.1 µM: 50%
Aurora B; 1 μM
  histone H3 (Ser10) phosphorylation band by Aurora B: only a weak histone H (Ser10) band
Aurora B; discussion statement
  concentration required for Aurora B inhibition: ≤ 1 µM
IKK beta
  remaining activity at 5 µM: 68%
CDK2/cyclinA
  kinase activity compared with the control: 98
MSK1
  remaining activity at 5 µM: 98%
MEK1
  remaining activity at 5 µM: 104%
Met
  kinase activity compared with the control: 89
MSK2
  remaining activity at 5 µM: 79%
EGFR
  kinase activity compared with the control: 106
Flt3
  remaining activity at 5 µM: 92%
CDK1/cyclinB
  remaining activity at 5 µM: 86%
PI3-K alpha
  remaining activity at 5 µM: 102%
p70S6K
  remaining activity at 5 µM: 72%
MKK7 beta
  kinase activity compared with the control: 94
mTOR/FKBP12
  remaining activity at 5 µM: 86%
GSK3 beta
  remaining activity at 5 µM: 94%
PI3-K delta
  remaining activity at 5 µM: 105%
PKB beta (Akt2); 5 μM
  Akt2 activity suppressed compared with the control (kinase profile): more than 50%
PKB beta (Akt2); PKB beta (Akt2), read-out: kinase activity compared with the control
  remaining activity at 5 µM: 47%
IGF-1R
  remaining activity at 5 µM: 105%
GSK3 alpha
  remaining activity at 5 µM: 85%
AMPK-alpha1
  remaining activity at 5 µM: 96%
MKK4
  remaining activity at 5 µM: 130%
AMPK-alpha2
  remaining activity at 5 µM: 90%
c-Kit
  remaining activity at 5 µM: 123%
PKB alpha (Akt1)
  remaining activity at 5 µM: 68%
mTOR
  remaining activity at 5 µM: 136%
PI3-K beta
  remaining activity at 5 µM: 103%
RSK2
  remaining activity at 5 µM: 94%
c-RAF
  remaining activity at 5 µM: 87%
MKK6
  remaining activity at 5 µM: 129%
MAPK1
  remaining activity at 5 µM: 100%
IKK alpha
  remaining activity at 5 µM: 83%
